This assay has as its target T1, human PLC-β2 (Homo sapiens, UniProt Q00722).
T1 construct: made in house; host or cells: Sf9 cells (Spodoptera frugiperda), recombinant baculovirus
Kind of assay: PLC assay using FlashPlates (immobilized [3H]PIP2 hydrolysis). The class given is biochemical. As to conditions: for inhibition at 10 µM: read-out: %; for IC50: 96-well Phospholipid FlashPlates coated with [3H]PIP2, purified recombinant human PLC-β2 or cytosolic human PLC-β2. The text has this: The hydrolysis of phosphatidylinositol-4,5-bisphosphate (PIP2) by a specific phospholipase C-β2 (PLC-β2) produces two intracellular messengers, diacylglycerol (DAG) and inositol 1,4,5-trisphosphate ([…]), which mediate the activation of protein kinase C and intracellular Ca^2+ release. A conventional organic solvent extraction method is widely used for PLC assays to isolate IP3 from the substrate […]. The conventional PLC-β2 assay, however is terminated by addition of acidified organic solvents and subsequent extraction and phase separation. […] Accordingly, a preferred method to test the compounds of the present invention, was developed utilizing a 96-well plate assay for PLC-β2 using immobilized radiolabeled substrate to quantitatively measure the reduction in the substrate level without a need for organic solvent extraction. The automated PLC-β2 assay described herein provides a convenient method for quantitative measurement of phospholipase C activities in a high throughput fashion.
Ninety-six well Phospholipid FlashPlates were coated with 0.2 mL of 50 mM Tris/HCl (pH 7.4), 0.01% Ac-BSA and 50,000 cpm of ^[3H]PIP2 (phosphatidylinositol-4,5-bisphosphate) at 4° C. for 72 h. The wells were aspirated and washed twice with PBS. The reactions were conducted directly in the wells in PLC reaction buffer containing 50 mM Tris/HCl (pH 7.2), 2.75 mM EDTA (pH 7.3), 80 mM KCl, 10 mM LiCl, 0.04% DOC and 2 mM CaCl2 in the absence or presence of the purified recombinant human PLC-β2 (prepared as described hereafter) or cytosolic human PLC-β2 from […]. Reduction of radioactivity was monitored by a Packard TopCount instrument (Packard Instrument Company, Conn., USA).
Suspension cultures of Sf9 cells were maintained in a spinner flask at 27° C. and stirred at 90 rpm. The cells were grown in Grace's media supplemented with 10% (v/v) fetal bovine serum, 3.3 g/l yeastolate, 3.3 g/l lactalbumin hydrosylate, glutamine (6.4 mM final), […] gentamicin, and 50 µg/ml kanamycin. Suspension of Sf9 cells (1.0×10^6 cells/ml) were infected with 5 pfu/cell of recombinant baculovirus encoding PLC-β2 and incubated at 27° C. for 72 h. The cells were collected by centrifugation (500×g, 7 min, 4° C.) and disrupted by hypotonic lysis buffer containing 20 mM Tris/HCl, pH 7.4, 5 mM MgCl2, 2 mM EGTA, 200 μM PMSF, 200 μM benzamidine and 1 μM pepstatin A. The lysate was sonicated on ice and the nuclei and unbroken cells removed by centrifugation (500×g, 5 min, 4° C.). The supernatant was recovered and clarified by centrifugation (34,000 rpm, 60 min, 4° C.). The supernatant was used as a crude cytosolic fraction (Paterson, A., Boyer, J. L., Watts, V. J., Morris, A. J., Price, E. M., Harden, T. K. (1995) Concentration of enzyme-dependent activation of PLC β1 and PLC β2 by Gα11 and βγ subunits. Cellular Signalling 7, 709-720).
Crude cytosol prepared from Sf9 cells expressing PLC-β2 was purified initially by chromatography on a 10 ml column of Q-Sepharose FF, equilibrated in buffer A (25 mM HEPES, pH 7.2,2 mM DTT, 2mM EDTA, 2 mM EGTA, 200 μM PMSF, 200 μM benzamidine, 1 μM pepstatin A containing 10 mM NaCl). […]

T1 sequence (Q00722 whole entry): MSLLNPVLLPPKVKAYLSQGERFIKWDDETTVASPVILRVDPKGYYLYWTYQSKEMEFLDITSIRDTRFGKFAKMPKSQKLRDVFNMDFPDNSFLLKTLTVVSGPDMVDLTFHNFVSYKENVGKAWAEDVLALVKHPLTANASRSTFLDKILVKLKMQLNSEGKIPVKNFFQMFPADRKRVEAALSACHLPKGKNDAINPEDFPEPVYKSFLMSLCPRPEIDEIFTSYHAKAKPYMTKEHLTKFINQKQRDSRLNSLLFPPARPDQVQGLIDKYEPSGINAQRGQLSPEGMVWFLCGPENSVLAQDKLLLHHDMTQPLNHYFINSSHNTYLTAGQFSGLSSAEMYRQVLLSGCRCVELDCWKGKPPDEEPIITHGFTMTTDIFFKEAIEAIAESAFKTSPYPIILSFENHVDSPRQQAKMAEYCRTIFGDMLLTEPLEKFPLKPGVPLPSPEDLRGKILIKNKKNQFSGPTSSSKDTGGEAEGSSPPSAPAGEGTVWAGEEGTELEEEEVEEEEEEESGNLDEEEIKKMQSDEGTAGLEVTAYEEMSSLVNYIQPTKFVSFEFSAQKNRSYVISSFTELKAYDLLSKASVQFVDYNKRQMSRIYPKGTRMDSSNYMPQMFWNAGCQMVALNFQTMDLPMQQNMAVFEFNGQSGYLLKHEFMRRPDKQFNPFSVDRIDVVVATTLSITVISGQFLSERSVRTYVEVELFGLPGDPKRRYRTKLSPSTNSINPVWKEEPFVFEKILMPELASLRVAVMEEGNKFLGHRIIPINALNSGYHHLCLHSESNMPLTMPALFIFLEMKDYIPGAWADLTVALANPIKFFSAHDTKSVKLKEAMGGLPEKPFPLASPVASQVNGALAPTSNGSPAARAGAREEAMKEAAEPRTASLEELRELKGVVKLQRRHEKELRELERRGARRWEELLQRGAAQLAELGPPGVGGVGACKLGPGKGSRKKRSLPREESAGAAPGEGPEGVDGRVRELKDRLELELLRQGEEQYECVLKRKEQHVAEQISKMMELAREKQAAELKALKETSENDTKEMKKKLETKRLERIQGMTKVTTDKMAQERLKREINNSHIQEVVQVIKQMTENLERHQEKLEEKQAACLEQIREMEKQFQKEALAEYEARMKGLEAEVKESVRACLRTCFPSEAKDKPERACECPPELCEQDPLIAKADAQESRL

With `NC(=O)c1ccc(N2CCC(C(c3ccccc3)c3ccccc3)CC2)c(NC(=O)Nc2ccccc2)c1` [Cpd 6, 4-[4-(diphenylmethyl)-1-piperidinyl]-3-[[(phenylamino)carbonyl]amino]-benzamide], the inhibition at 10 µM is 60.7%.
As for `NC(=O)c1ccc(N2CCC(c3ccccc3)CC2)c(NC(=O)Nc2ccc3c(c2)OCO3)c1` [Cpd 3, 3-[[(1,3-benzodioxol-5-ylamino)carbonyl]amino]-4-(4-phenyl-1-piperidinyl)-benzamide], the IC50 came out at 11 µM.
With `NC(=O)c1ccc(N2CCC(=C(c3ccccc3)c3ccccc3)CC2)c(NC(=O)Nc2ccccc2)c1` [Cpd 7, 4-[4-(diphenylmethylene)-1-piperidinyl]-3-[[(phenylamino)carbonyl]amino]-benzamide], the inhibition at 10 µM worked out at 49.8%.
Turning to `NC(=O)c1ccc(N2CCC(c3ccccc3)CC2)c(NC(=O)Nc2ccccc2)c1` [Cpd 2, 3-[[(phenylamino)carbonyl]amino]-4-(4-phenyl-1-piperidinyl)-benzamide], the IC50 stood at 7.1 µM.
On the same count and under the same terms, to `NC(=O)c1ccc(N2CCC(Cc3ccccc3)CC2)c(NC(=O)Nc2ccccc2)c1` [Cpd 1, 3-[[(phenylamino)carbonyl]amino]-4-[4-(phenylmethyl)-1-piperidinyl]-benzamide] belongs 3.4 µM.

The IC50 is the concentration that gives 50% inhibition.

These data come from patent publication US20040242639A1, “Phospholipase C inhibitors for use in treating inflammatory disorders” (priority 2003, published 2004).
